Data from BindingDB's records for doi:10.1023/a:1006986824213 (1999).
Structures can show the parent of a compound that is named as a salt.

Key:
[1] = molecular target: T1, 5-hydroxytryptamine receptor 1A (Rattus norvegicus, UniProt P19327)
T1 sequence (P19327 whole entry): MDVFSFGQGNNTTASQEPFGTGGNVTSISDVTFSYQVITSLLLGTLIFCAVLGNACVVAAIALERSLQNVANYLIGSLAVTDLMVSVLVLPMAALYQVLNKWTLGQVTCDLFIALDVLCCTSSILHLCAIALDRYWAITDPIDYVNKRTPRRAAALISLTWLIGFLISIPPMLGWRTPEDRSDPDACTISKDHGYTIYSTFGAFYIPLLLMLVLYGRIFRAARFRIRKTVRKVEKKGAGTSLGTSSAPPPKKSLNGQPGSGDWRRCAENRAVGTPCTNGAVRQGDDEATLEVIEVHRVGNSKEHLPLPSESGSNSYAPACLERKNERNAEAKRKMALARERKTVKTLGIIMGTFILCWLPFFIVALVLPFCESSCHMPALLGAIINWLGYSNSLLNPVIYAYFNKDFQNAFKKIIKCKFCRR

D(2) dopamine receptor = D(2) dopamine receptor (Rattus norvegicus, UniProt P61169)
[2] = molecular target: T2, Alpha-1A adrenergic receptor (Rattus norvegicus, UniProt P43140)
T2 sequence (P43140 whole entry): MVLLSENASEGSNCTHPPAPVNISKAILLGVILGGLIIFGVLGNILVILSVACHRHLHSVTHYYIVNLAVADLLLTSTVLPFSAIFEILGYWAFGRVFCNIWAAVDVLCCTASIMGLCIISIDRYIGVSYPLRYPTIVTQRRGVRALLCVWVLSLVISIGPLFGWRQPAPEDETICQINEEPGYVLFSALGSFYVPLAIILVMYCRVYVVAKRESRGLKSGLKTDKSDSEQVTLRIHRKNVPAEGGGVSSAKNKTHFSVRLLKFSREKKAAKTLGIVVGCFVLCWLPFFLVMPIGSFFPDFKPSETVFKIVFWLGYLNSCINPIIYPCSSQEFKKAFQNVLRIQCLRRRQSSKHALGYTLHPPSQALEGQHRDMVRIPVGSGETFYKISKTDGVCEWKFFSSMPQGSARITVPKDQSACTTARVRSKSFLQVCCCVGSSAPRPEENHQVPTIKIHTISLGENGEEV

[3] = molecular target: T3, 5-hydroxytryptamine receptor 2C (Rattus norvegicus, UniProt P08909)
T3 sequence (P08909 whole entry): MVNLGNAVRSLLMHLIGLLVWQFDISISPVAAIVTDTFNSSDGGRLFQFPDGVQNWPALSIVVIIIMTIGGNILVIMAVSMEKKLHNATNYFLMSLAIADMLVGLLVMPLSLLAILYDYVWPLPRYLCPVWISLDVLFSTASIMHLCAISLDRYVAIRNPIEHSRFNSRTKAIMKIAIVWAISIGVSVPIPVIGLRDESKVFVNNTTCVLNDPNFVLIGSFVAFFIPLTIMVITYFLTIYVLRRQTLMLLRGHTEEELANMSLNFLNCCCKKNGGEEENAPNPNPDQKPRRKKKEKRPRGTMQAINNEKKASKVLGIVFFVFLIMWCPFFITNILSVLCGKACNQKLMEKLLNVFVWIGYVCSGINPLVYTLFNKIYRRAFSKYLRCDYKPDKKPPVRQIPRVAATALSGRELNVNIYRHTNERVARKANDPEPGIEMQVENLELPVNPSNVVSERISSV

[4] = molecular target: T4, Alpha-2C adrenergic receptor (Rattus norvegicus, UniProt P22086)
T4 sequence (P22086 whole entry): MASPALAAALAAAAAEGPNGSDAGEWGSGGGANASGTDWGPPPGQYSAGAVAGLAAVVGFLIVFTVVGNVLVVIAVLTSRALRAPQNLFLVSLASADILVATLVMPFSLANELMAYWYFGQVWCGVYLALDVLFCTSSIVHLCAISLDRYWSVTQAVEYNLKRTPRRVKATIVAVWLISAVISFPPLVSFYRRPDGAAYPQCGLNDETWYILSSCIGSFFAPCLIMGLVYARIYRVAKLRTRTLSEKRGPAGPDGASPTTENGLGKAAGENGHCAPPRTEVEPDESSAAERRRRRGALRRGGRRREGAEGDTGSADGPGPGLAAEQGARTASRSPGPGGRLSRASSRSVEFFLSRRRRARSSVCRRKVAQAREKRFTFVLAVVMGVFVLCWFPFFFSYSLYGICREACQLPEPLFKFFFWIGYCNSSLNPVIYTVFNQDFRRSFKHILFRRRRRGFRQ

[5] = molecular target: T5, Muscarinic acetylcholine receptor M2 (Rattus norvegicus, UniProt P10980)
T5 sequence (P10980 whole entry): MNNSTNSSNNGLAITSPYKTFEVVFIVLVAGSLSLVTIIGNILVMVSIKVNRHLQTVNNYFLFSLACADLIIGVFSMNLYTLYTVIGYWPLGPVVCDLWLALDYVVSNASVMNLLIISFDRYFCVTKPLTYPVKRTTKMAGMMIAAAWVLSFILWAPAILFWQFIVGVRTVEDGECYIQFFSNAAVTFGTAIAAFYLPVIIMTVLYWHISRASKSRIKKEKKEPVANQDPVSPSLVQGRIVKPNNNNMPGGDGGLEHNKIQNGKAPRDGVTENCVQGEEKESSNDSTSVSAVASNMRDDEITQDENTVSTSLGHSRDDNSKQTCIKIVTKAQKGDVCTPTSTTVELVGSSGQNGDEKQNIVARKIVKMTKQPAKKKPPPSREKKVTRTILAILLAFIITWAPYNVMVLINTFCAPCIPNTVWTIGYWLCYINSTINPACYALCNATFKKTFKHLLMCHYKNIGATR

D(1A) dopamine receptor = D(1A) dopamine receptor (Rattus norvegicus, UniProt P18901)
Histamine H1 receptor = Histamine H1 receptor (Rattus norvegicus, UniProt P31390)
[6] = molecular target: Beta-2 adrenergic receptor (Rattus norvegicus, UniProt P10608)
[7] = molecular target: 5-hydroxytryptamine receptor 2A (Rattus norvegicus, UniProt P14842)
[8] = molecular target: Sodium-dependent dopamine transporter (Rattus norvegicus, UniProt P23977)
[9] = molecular target: Sodium-dependent serotonin transporter (Rattus norvegicus, UniProt P31652)
[10] = molecular target: Norepinephrine transporter (Rattus norvegicus, UniProt Q9JIA2)

Beta-2 adrenergic receptor, sequence (P10608 whole entry): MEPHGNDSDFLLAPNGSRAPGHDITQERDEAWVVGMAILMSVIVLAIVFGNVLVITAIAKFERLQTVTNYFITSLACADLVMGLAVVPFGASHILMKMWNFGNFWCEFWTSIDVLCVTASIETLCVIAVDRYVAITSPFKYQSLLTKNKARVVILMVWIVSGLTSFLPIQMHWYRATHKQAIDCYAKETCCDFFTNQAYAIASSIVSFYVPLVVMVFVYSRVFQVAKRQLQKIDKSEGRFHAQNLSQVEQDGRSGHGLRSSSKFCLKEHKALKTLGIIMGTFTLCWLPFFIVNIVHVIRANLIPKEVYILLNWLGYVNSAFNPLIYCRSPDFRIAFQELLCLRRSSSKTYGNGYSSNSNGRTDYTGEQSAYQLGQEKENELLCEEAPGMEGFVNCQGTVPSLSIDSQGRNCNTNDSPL
D(1A) dopamine receptor, sequence (P18901 whole entry): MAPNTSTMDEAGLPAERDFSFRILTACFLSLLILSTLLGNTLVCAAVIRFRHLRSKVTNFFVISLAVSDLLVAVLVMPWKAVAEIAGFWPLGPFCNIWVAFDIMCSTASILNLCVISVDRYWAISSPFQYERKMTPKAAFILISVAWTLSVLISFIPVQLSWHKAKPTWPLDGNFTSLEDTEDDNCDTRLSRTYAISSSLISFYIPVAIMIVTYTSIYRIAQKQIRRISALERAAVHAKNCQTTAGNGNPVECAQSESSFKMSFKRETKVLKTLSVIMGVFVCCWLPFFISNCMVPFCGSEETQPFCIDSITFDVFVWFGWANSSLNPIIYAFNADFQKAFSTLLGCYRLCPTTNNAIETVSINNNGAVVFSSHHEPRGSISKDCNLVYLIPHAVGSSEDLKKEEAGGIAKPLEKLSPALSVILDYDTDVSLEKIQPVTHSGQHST
D(2) dopamine receptor, sequence (P61169 whole entry): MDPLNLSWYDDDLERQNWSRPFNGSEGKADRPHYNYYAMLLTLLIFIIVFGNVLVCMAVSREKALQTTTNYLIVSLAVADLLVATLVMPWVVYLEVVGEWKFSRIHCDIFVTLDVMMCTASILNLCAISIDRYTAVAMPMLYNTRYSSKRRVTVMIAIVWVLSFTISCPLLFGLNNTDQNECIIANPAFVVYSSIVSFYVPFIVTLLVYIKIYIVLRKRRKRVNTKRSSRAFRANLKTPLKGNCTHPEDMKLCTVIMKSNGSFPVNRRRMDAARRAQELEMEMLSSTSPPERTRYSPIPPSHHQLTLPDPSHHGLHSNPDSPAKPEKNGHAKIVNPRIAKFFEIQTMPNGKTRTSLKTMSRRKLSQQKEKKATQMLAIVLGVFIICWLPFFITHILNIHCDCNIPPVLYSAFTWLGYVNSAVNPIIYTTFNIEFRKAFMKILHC
Histamine H1 receptor, sequence (P31390 whole entry): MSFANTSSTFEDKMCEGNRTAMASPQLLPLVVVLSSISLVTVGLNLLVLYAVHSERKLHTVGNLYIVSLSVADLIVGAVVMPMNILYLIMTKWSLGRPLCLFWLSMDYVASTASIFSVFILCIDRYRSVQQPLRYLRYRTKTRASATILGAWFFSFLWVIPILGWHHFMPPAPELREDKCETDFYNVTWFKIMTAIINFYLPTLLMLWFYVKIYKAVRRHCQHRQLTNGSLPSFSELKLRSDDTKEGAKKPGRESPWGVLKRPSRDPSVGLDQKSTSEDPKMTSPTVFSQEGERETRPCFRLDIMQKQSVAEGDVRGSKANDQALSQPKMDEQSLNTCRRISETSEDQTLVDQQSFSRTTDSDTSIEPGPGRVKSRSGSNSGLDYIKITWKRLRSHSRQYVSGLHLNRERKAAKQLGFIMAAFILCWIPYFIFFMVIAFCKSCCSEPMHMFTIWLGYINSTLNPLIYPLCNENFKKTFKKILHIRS
Sodium-dependent dopamine transporter, sequence (P23977 whole entry): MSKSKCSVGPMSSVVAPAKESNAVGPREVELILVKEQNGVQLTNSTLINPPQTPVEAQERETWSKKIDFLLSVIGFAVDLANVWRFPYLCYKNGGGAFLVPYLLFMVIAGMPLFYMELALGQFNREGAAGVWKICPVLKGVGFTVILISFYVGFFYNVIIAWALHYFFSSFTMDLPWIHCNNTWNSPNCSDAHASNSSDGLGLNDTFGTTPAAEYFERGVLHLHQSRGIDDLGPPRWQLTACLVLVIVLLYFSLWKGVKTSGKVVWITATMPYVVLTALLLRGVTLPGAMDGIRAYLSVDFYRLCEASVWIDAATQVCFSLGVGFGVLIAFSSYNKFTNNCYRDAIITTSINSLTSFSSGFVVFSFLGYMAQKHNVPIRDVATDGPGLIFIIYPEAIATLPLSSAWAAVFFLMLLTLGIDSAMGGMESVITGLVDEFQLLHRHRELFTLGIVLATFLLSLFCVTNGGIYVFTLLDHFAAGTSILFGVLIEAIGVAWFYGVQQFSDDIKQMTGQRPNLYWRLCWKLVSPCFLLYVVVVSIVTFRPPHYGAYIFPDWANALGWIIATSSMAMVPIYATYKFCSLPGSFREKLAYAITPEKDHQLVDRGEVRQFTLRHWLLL
5-hydroxytryptamine receptor 2A, sequence (P14842 whole entry): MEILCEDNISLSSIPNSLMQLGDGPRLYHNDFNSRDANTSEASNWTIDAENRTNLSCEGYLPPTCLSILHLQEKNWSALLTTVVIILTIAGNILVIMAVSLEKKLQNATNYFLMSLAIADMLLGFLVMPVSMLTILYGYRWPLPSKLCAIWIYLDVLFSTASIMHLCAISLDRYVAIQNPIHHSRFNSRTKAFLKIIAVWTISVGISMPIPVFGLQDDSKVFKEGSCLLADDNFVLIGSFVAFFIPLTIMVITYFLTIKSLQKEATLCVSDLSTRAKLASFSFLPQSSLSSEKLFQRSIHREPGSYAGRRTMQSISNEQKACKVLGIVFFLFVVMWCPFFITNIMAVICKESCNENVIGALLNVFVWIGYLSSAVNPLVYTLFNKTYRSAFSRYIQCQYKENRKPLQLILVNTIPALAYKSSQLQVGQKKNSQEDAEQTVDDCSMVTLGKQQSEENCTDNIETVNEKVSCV
Sodium-dependent serotonin transporter, sequence (P31652 whole entry): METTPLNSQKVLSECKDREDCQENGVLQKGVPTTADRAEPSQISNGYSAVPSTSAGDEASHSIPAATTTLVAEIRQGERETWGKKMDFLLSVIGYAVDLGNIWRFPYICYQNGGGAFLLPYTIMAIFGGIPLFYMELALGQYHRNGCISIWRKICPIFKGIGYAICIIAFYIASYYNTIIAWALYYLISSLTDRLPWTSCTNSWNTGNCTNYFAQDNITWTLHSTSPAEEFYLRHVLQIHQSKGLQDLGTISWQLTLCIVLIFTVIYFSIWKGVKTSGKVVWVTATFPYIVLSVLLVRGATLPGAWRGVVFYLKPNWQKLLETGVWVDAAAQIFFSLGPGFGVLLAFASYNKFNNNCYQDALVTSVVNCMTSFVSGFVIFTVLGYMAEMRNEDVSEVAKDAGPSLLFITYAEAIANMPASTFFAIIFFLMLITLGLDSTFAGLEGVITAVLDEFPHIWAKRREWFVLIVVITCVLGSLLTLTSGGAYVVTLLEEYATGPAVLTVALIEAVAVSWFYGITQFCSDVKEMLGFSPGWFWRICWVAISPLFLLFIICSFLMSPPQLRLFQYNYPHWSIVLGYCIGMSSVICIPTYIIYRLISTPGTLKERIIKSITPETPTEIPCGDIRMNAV

| Compound | Ki [1] | Ki (D(2) dopamine receptor) | Ki [2] | Ki [3] | Ki [4] | Ki [5] | Ki (D(1A) dopamine receptor) | Ki (Histamine H1 receptor) | Ki [6] | Ki [7] | Ki [8] | Ki [9] | Ki [10] |
| --- | --- | --- | --- | --- | --- | --- | --- | --- | --- | --- | --- | --- | --- |
| Fc1ccc([C@@H]2CCNC[C@H]2COc2ccc3c(c2)OCO3)cc1 [PAROXETINE] | > 10000 nM | > 10000 nM | > 10000 nM | > 10000 nM | 8900 nM | 210 nM | > 10000 nM | > 10000 nM | > 10000 nM | – | – | – | – |
| CN(CCCN1c2ccccc2CCc2ccccc21)CC(=O)c1ccc(Cl)cc1 [CAS_23047-25-8] | > 10000 nM | 6700 nM | 620 nM | – | 2100 nM | 300 nM | 500 nM | 1000 nM | > 10000 nM | 1200 nM | 3300 nM | 880 nM | 2.7 nM |
| COc1ccc(C(CN(C)C)C2(O)CCCCC2)cc1 (stereo unspecified) [NSC_62923] | > 10000 nM | > 10000 nM | – | > 10000 nM | > 10000 nM | > 10000 nM | > 10000 nM | > 10000 nM | – | – | – | – | – |
| COCCCC/C(=N\OCCN)c1ccc(C(F)(F)F)cc1 [(1E)-5-methoxy-1-[4-(trifluoromethyl)phenyl]pentan-1-one O-(2-aminoethyl)oxime] | > 10000 nM | > 10000 nM | 4800 nM | 6700 nM | 1900 nM | > 10000 nM | > 10000 nM | > 10000 nM | > 10000 nM | > 10000 nM | > 10000 nM | – | 620 nM |
| CN(C)CCC=C1c2ccccc2CSc2ccccc21 [CAS_897-15-4] | 4000 nM | – | 419 nM | – | 12 nM | 26 nM | – | 4 nM | – | 152 nM | 5180 nM | – | 70 nM |
| CCc1nn(CCCN2CCN(c3cccc(Cl)c3)CC2)c(=O)n1CCOc1ccccc1 [2-{3-[4-(3-chlorophenyl)piperazin-1-yl]propyl}-5-ethyl-4-(2-phenoxyethyl)-2,4-dihydro-3H-1,2,4-triazol-3-one] | 1000 nM | – | 42 nM | – | 1200 nM | > 10000 nM | 1500 nM | 370 nM | > 10000 nM | – | 470 nM | – | 110 nM |
| CN[C@@H]1CC[C@@H](c2ccc(Cl)c(Cl)c2)c2ccccc21 [[4-(3,4-Dichloro-phenyl)-1,2,3,4-tetrahydro-naphthalen-1-yl]-methyl-amine] | > 10000 nM | > 10000 nM | 2800 nM | – | – | 1100 nM | 6300 nM | > 10000 nM | > 10000 nM | – | – | – | – |
| CN(C)CCCC1(c2ccc(F)cc2)OCc2cc(C#N)ccc21 (stereo unspecified) [CITALOPRAM HYDROBROMIDE] | > 10000 nM | > 10000 nM | – | 630 nM | > 10000 nM | 5600 nM | > 10000 nM | – | > 10000 nM | – | – | – | – |
| CNCC[C@@H](Oc1ccc(C(F)(F)F)cc1)c1ccccc1 [Prozac] | – | > 10000 nM | – | – | – | – | > 10000 nM | 3200 nM | > 10000 nM | – | – | – | – |
| CN(C)CCC=C1c2ccccc2CCc2ccccc21 | > 10000 nM | 850 nM | 69 nM | 8 nM | 340 nM | 8.9 nM | 81 nM | 8.3 nM | > 10000 nM | 11 nM | 5300 nM | – | 24 nM |
| CC(NC(C)(C)C)C(=O)c1cccc(Cl)c1 (stereo unspecified) [BUPROPION HYDROCHLORIDE] | – | > 10000 nM | > 10000 nM | > 10000 nM | > 10000 nM | > 10000 nM | > 10000 nM | – | > 10000 nM | – | 570 nM | – | 1400 nM |
